Measured values from patent publication US20060079566A1, “PDK-1/Akt signaling inhibitors” (priority 2003, published 2006).
pIC50: −log10 of the molar value.

Legend:
NCI/ADR-RES = test: NCI DTP screen (SRB), Breast Cancer; type: cell-based; conditions: Homo sapiens
Protocol: (§1) Screening of compounds 70 and 71 against several cancer cell lines The human tumor cell lines of the cancer screening panel are grown in RPMI 1640 medium containing 5% fetal bovine serum and 2 mM L-glutamine. For a typical screening experiment, cells are inoculated into 96 well microtiter plates in 100 μL at plating densities ranging from 5,000 to 40,000 cells/well depending on the doubling time of individual cell lines. After cell inoculation, the microtiter plates are incubated at 37° C., 5% CO2, 95% air and 100% relative humidity for 24 h prior to addition of experimental drugs.
(§2) After 24 h, two plates of each cell line are fixed in situ with TCA, to represent a measurement of the cell population for each cell line at the time of drug addition (Tz). Experimental drugs are solubilized in dimethyl sulfoxide at 400-fold the desired final maximum test concentration and stored frozen prior to use. At the time of drug addition, an aliquot of frozen concentrate is thawed and diluted to twice the desired final maximum test concentration with complete medium containing 50 μg/ml gentamicin. Additional four, 10-fold or ½ log serial dilutions are made to provide a total of five drug concentrations plus control. Aliquots of 100 μl of these different drug dilutions are added to the appropriate microtiter wells already containing 100 μl of medium, resulting in the required final drug concentrations.
(§3) Following drug addition, the plates are incubated for an additional 48 h at 37° C., 5% CO2, 95% air, and 100% relative humidity. For adherent cells, the assay is terminated by the addition of cold TCA. Cells are fixed in situ by the gentle addition of 50 μl of cold 50% (w/v) TCA (final concentration, 10% TCA) and incubated for 60 minutes at 4° C. The supernatant is discarded, and the plates are washed five times with tap water and air dried. Sulforhodamine B (SRB) solution (100 μl) at 0.4% (w/v) in 1% acetic acid is added to each well, and plates are incubated for 10 minutes at room temperature. After staining, unbound dye is removed by washing five times with 1% acetic acid and the plates are air dried. Bound stain is subsequently solubilized with 10 mM trizma base, and the absorbance is read on an automated plate reader at a wavelength of 515 nm. For suspension cells, the methodology is the same except that the assay is terminated by fixing settled cells at the bottom of the wells by gently adding 50 μl of 80% TCA (final concentration, 16% TCA). Using the seven absorbance measurements [time zero, (Tz), control growth, (C), and test growth in the presence of drug at the five concentration levels (Ti)], the percentage growth is calculated at each of the drug concentrations levels. Percentage growth inhibition is calculated as: [(Ti−Tz)/(C−Tz)]×100 for concentrations for which Ti>/=Tz [(Ti−Tz)/Tz]×100 for concentrations for which Ti<Tz
(§4) Three dose response parameters are calculated for each experimental agent. […] The drug concentration resulting in total growth inhibition (TGI) is calculated from Ti=Tz. […] Values are calculated for each of these three parameters if the level of activity is reached; however, if the effect is not reached or is exceeded, the value for that parameter is expressed as greater or less than the maximum or minimum concentration tested.

T-47D = test: NCI DTP screen (SRB), Breast Cancer; type: cell-based
Protocol: as §1, §2, §3, §4

HS 57BT = test: NCI DTP screen (SRB), Breast Cancer; type: cell-based
Protocol: as §1, §2, §3, §4

MDA-MB-231/ATCC = test: NCI DTP screen (SRB), Breast Cancer; type: cell-based
Protocol: as §1, §2, §3, §4

MDA-MB-435 = test: NCI DTP screen (SRB), Breast Cancer; type: cell-based; conditions: Homo sapiens
Protocol: as §1, §2, §3, §4

recombinant PDK-1 = biological target: T1, recombinant PDK-1 (Homo sapiens, UniProt O15530); test: PDK-1 kinase activity (Upstate kit, SGK-coupled, cell-free); type: biochemical
T1 construct: purchased Upstate (Lake Placid, N.Y.)
T1 sequence (O15530 1-556): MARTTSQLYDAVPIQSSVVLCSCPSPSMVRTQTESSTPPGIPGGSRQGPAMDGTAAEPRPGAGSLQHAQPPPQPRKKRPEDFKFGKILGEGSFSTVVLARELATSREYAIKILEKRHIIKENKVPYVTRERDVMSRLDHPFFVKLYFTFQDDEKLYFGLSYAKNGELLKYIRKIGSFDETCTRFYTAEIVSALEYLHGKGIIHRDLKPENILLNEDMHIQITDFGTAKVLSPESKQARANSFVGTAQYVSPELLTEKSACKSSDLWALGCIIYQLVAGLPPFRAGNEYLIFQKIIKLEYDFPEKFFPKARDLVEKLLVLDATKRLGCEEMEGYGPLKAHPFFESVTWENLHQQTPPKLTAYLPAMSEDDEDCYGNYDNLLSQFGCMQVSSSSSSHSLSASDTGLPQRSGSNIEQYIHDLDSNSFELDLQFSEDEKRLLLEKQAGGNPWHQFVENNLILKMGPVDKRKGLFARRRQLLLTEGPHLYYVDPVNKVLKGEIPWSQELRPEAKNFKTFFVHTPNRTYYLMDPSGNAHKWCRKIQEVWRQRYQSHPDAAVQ

OVCAR-3 = test: NCI DTP screen (SRB), Ovarian Cancer; type: cell-based
Protocol: as §1, §2, §3, §4

OVCAR-5 = test: NCI DTP screen (SRB), Ovarian Cancer; type: cell-based; conditions: Homo sapiens
Protocol: as §1, §2, §3, §4

IGROV1 = test: NCI DTP screen (SRB), Ovarian Cancer; type: cell-based; conditions: Homo sapiens
Protocol: as §1, §2, §3, §4

SK-OV-3 = test: NCI DTP screen (SRB), Ovarian Cancer; type: cell-based; conditions: Homo sapiens
Protocol: as §1, §2, §3, §4

OVCAR-8 = test: NCI DTP screen (SRB), Ovarian Cancer; type: cell-based; conditions: Homo sapiens
Protocol: as §1, §2, §3, §4

OVCAR-4 = test: NCI DTP screen (SRB), Ovarian Cancer; type: cell-based; conditions: Homo sapiens
Protocol: as §1, §2, §3, §4

[1] = test system: sixty human tumor cell lines; test: NCI DTP sixty cell line assay, means over the panel; type: cell-based
Protocol: as §1, §2, §3, §4

immunoprecipitated Akt = test: Direct inhibition of immunoprecipitated Akt kinase activity; type: biochemical, human
SK-MEL-28 = test: NCI DTP screen (SRB), Melanoma; type: cell-based; conditions: Homo sapiens
Protocol: as §1, §2, §3, §4

In the case of NCC(=O)Nc1ccc(-n2nc(C(F)(F)F)cc2-c2ccc3c(ccc4ccccc43)c2)cc1 [Compound 70, 2-Amino-N-{4-[5-(2-phenanthrenyl)-3-(trifluoromethyl)-1H-pyrazol-1-yl]-phenyl}-acetamide], the GI50 (NCI/ADR-RES) was 954 nM, the CC50 (NCI/ADR-RES; read-out: LC50) was 8280 nM and the GI50 (T-47D; Homo sapiens, T47D) was 1820 nM. The “Percent Growth” value (T-47D; Log10 Concentration −4.0) was −64%, the “Percent Growth” value (HS 57BT; HS 57BT, Log10 Concentration −5.0) was −34% and the “Percent Growth” value (HS 57BT; HS 57BT, Log10 Concentration −6.0) was 88%. For the same molecule, the CC50 (HS 57BT; Homo sapiens, read-out: LC50) was > 100000 nM, the GI50 (HS 57BT; Homo sapiens, HS 57BT) was 2050 nM and the CC50 (MDA-MB-231/ATCC; Homo sapiens, MDA-MB-231, read-out: LC50) was 6670 nM. For the same molecule, the GI50 (MDA-MB-231/ATCC; Homo sapiens, MDA-MB-231/ATCC) was 1150 nM, the “Mean Optical Densities” value (MDA-MB-231/ATCC; MDA-MB-231/ATCC, Log10 Concentration −8.0) was 1.988 and the GI50 (MDA-MB-435) was 1350 nM. The pIC50 (recombinant PDK-1; inhibiting recombinant PDK-1 kinase activity, read-out: IC50 PDK-1) was 5.30, the “increase in PDK-1 inhibition potency over compound 59” value (recombinant PDK-1; ratio of IC50 values) was “two-” and the GI50 (OVCAR-3; Homo sapiens) was 1510 nM. For the same molecule, the “Mean Optical Densities” value (OVCAR-3; Log10 Concentration −8.0) was 1.879, the GI50 (OVCAR-5; OVCAR-5) was 1710 nM and the CC50 (OVCAR-5; OVCAR-5, read-out: LC50) was 6450 nM. For the same molecule, the CC50 (IGROV1; IGROV-1, read-out: LC50) was > 100000 nM, the GI50 (IGROV1; IGROV-1, IGROV1) was 1560 nM and the GI50 (SK-OV-3) was 1370 nM. For the same molecule, the GI50 (OVCAR-8; OVCAR-8) was 1020 nM, the CC50 (OVCAR-8; OVCAR-8, read-out: LC50) was > 100000 nM and the GI50 (OVCAR-4; OVCAR-4) was 1780 nM. For the same molecule, the CC50 (OVCAR-4; OVCAR-4, read-out: LC50) was 6550 nM, the “range in which cell growth is completely suppressed in a diverse range of tumor cell lines” value [1] was 3 to 5 µM and the CC50 ([1]; Homo sapiens, 48 h, read-out: mean LC50 among the sixty cell lines) was 24000 nM. The GI50 ([1]; Homo sapiens, 48 h, two-day treatment, serum-containing medium, read-out: mean GI50 among the sixty cell lines) was 1100 nM, the “concentration at which many cell lines respond to the growth inhibitory effect” value ([1]; two-day exposure, 5% FBS-containing medium) was ≥ 0.1 µM and the “direct inhibitory effect on immunoprecipitated Akt kinase activity” value (immunoprecipitated Akt) was “no appreciable direct inhibition”. For the same molecule, the GI50 (SK-MEL-28; SK-MEL-28) was 1220 nM and the CC50 (SK-MEL-28; SK-MEL-28, read-out: LC50) was 5690 nM.
